How the values were obtained:
[1] = species on record: Rattus norvegicus; test: Toxicity in rat allografted with rat Walker 256 cells; assay type: organism-based
[2] = test system: W256; test: Antitumor activity against rat Walker 256 cells allografted in rat; assay type: functional
[3] = Stability of the compound in acetone assessed as hydrolysis at 66 degC after 30 mins; assay type: physicochemical; details: 0.5 h
[4] = Ratio of LD50 for rat allografted with rat Walker 256 cells to ED90 for rat Walker 256 cells allografted in rat
[5] = Drug metabolism assessed as log K of Holtzman rat liver esterase-mediated hydrolysis after 5 mins; assay type: ADME, tissue-based; details: isolated protein
[6] = test system: L1210; test: Antitumor activity against mouse L1210 cells assessed as dose required to produce T/C of 125% administered for 10 days; assay type: functional
[7] = test system: P388; test: Antitumor activity against mouse P388 cells allografted in mouse assessed as dose required to produce T/C of 125% administered for 10 days; assay type: functional
[8] = test system: P388; test: Antitumor activity against mouse P388 cells allografted in mouse assessed as dose required to produce T/C of 180% administered for 10 days; assay type: functional
[9] = test system: L1210; test: Antitumor activity against mouse L1210 cells assessed as dose required to produce T/C of 125% administered for 15 days; assay type: functional
[10] = test system: L1210; test: Antitumor activity against mouse L1210 cells assessed as dose required to produce T/C of 125% administered for 8 days; assay type: functional
[11] = test system: P388; test: Antitumor activity against mouse P388 cells allografted in mouse assessed as dose required to produce T/C of 180% administered for 9 days; assay type: functional
[12] = test system: P388; test: Antitumor activity against mouse P388 cells allografted in mouse assessed as dose required to produce T/C of 125% administered for 9 days; assay type: functional
[13] = test system: L1210; test: Antitumor activity against mouse L1210 cells assessed as dose required to produce T/C of 125% administered for 9 days; assay type: functional

Row | SMILES | log1/CLD50 [1] | log1/CED90 [2] | Ratio [4] | other results
1 | O=C(O)CCCc1ccc(N(CCCl)CCCl)cc1 [CHLORAMBUCIL] | 4.03 | 5.12 |  | log K [3]: -3.65
2 | Cc1cccc(C)c1C(=O)Oc1ccc(N(CCCl)CCCl)cc1 | 3.1 | 3.31 | 3.5 | 
3 | CCN(CC)c1ccc(OC(=O)c2cccc([N+](=O)[O-])c2)cc1 |  |  |  | log K [5]: 0.55
4 | CS(=O)(=O)OCCN(CCOS(C)(=O)=O)c1cccc([N+](=O)[O-])c1 |  |  |  | log(1/C) [6]: 3.93
5 | O=C(Oc1ccc(N(CCCl)CCCl)cc1)c1cccc(F)c1 | 4.38 | 4.88 | 3.5 | 
6 | Cc1ccccc1C(=O)Oc1ccc(N(CCBr)CCBr)cc1 | 4.96 | 4.96 | 3.5 | 
7 | NC(Cc1ccc(N(CCCl)CCCl)cc1)C(=O)O (stereo not drawn) [SARCOLYSIN] |  |  |  | log(1/C) [7]: 5.61; log(1/C) [8]: 5.18; log(1/C) [9]: 4.94
8 | ClCCN(CCCl)c1ccc(/C=C/c2ccccc2)cc1 |  |  |  | log K [3]: -3.95; log(%) [3]: 1.26
9 | Cc1ccccc1C(=O)Oc1ccc(N(CCCl)CCCl)cc1 | 3.71 | 4.55 | 3.5 | 
10 | O=C(Oc1ccc(N(CCCl)CCCl)cc1)c1ccccc1 | 4.06 | 4.86 | 3.5 | 
11 | CS(=O)(=O)OCCN(CCOS(C)(=O)=O)c1ccc(N=O)cc1 |  |  |  | log(1/C) [10]: 6.13
12 | CCN(CC)c1ccc(OC(=O)c2cccc(Cl)c2)cc1 |  |  |  | log K [5]: 0.32
13 | O=C(Oc1ccc(N(CCCl)CCCl)cc1)c1ccc(Br)cc1 | 4.19 | 4.84 | 3.5 | 
14 | CCN(CC)c1ccc(OC(=O)c2cccc(C(F)(F)F)c2)cc1 |  |  |  | log K [5]: 0.34
15 | CC(=O)Nc1cc(N(CCOS(C)(=O)=O)CCOS(C)(=O)=O)ccc1N=O |  |  |  | log(1/C) [9]: 6.05
16 | O=C(Oc1ccc(N(CCBr)CCBr)cc1)c1cccc(Cl)c1 | 5.11 | 4.96 | 3.5 | 
17 | CCC(=O)OCC(Br)CBr (stereo not drawn) |  |  |  | log(1/C) [9]: 5.83
18 | CCN(CC)c1ccc(OC(=O)c2ccc(C(F)(F)F)cc2)cc1 |  |  |  | log K [5]: 0.45
19 | O=C(Oc1ccc(N(CCCl)CCCl)cc1)c1cccc(Br)c1 | 3.84 | 4.22 | 3.5 | 
20 | ClCCN(CCCl)c1ccc(/N=C/c2ccccc2)cc1 |  |  |  | log(1/C) [11]: 5; log(1/C) [12]: 5.33
21 | CCN(CC)c1ccc(OC(=O)c2ccc(OC)cc2)cc1 |  |  |  | log K [5]: -0.49

Row | SMILES | log1/CLD50 [1] | log1/CED90 [2] | Ratio [4] | other results
22 | CCN(CC)c1ccc(OC(=O)c2ccc(Cl)cc2)cc1 |  |  |  | log K [5]: 0.2
23 | O=C(Oc1ccc(N(CCCl)CCCl)cc1)c1cccc([N+](=O)[O-])c1 | 4.4 | 4.81 | 3.5 | 
24 | CCOC(=O)c1ccc(N(CCOS(C)(=O)=O)CCOS(C)(=O)=O)cc1 |  |  |  | log(1/C) [9]: 4.07
25 | Cc1ccc(C(=O)Oc2ccc(N(CCCl)CCCl)cc2)cc1 | 4.2 | 4.78 | 3.5 | 
26 | Cc1ccc(S(=O)(=O)OCCN(CCOS(=O)(=O)c2ccc(C)cc2)c2cccc(F)c2)cc1 |  |  |  | log(1/C) [9]: 3.31
27 | O=C(Oc1ccc(N(CCBr)CCBr)cc1)c1ccc(Cl)cc1 | 5.18 | 4.66 | 3.5 | 
28 | COc1ccc(C(=O)Oc2ccc(N(CCBr)CCBr)cc2)cc1 | 5.21 | 5.12 | 3.5 | 
29 | CCN(CC)c1ccc(OC(=O)c2ccc([N+](=O)[O-])cc2)cc1 |  |  |  | log K [5]: 0.67
30 | COc1ccc(C(=O)Oc2ccc(N(CCCl)CCCl)cc2)cc1 | 4.11 | 4.89 | 3.5 | 
31 | O=C(Oc1ccc(N(CCCl)CCCl)cc1)c1ccc(F)cc1 | 4.21 | 4.9 | 3.5 | 
32 | O=C(Oc1ccc(N(CCBr)CCBr)cc1)c1cccc([N+](=O)[O-])c1 | 5.07 | 4.67 | 3.5 | 
33 | CCOC(=O)c1cccc(N(CCOS(C)(=O)=O)CCOS(C)(=O)=O)c1 |  |  |  | log(1/C) [6]: 4.63
34 | CS(=O)(=O)OCCN(CCOS(C)(=O)=O)c1ccc([N+](=O)[O-])cc1 |  |  |  | log(1/C) [6]: 3.74
35 | Cc1cccc(C)c1C(=O)Oc1ccc(N(CCBr)CCBr)cc1 | 3.58 | 3.81 | 3.5 | 
36 | CS(=O)(=O)OCCN(CCOS(C)(=O)=O)c1cccc(C(F)(F)F)c1 |  |  |  | log(1/C) [9]: 4.42
37 | CS(=O)(=O)OCCN(CCOS(C)(=O)=O)c1ccccc1 |  |  |  | log(1/C) [9]: 3.97
38 | O=C(Oc1ccc(N(CCBr)CCBr)cc1)c1cccc(C(F)(F)F)c1 | 5.11 | 4.99 | 3.5 | 
39 | CC(=O)Nc1cccc(N(CCOS(C)(=O)=O)CCOS(C)(=O)=O)c1 |  |  |  | log(1/C) [13]: 5.67
40 | CC(C)c1ccccc1C(=O)Oc1ccc(N(CCBr)CCBr)cc1 | 4.66 | 4.39 | 3.5 | 
41 | Cc1ccc(S(=O)(=O)OCCN(CCOS(=O)(=O)c2ccc(C)cc2)c2ccccc2)cc1 |  |  |  | log(1/C) [9]: 3.8
42 | CS(=O)(=O)OCCN(CCOS(C)(=O)=O)c1cccc(Cl)c1 |  |  |  | log(1/C) [6]: 4.85

Row | SMILES | log1/CLD50 [1] | log1/CED90 [2] | Ratio [4] | other results
43 | Cc1cccc(C(=O)Oc2ccc(N(CCBr)CCBr)cc2)c1 | 5.16 | 5.18 | 3.5 | 
44 | CCN(CC)c1ccc(OC(=O)c2ccc(C)cc2)cc1 |  |  |  | log K [5]: -0.41
45 | O=C(Oc1ccc(N(CCBr)CCBr)cc1)c1ccccc1 | 5.45 | 5.45 | 3.5 | 
46 | Cc1cc(N(CCOS(C)(=O)=O)CCOS(C)(=O)=O)ccc1N=O |  |  |  | log(1/C) [6]: 6.4
47 | Cc1ccc(C(=O)Oc2ccc(N(CCBr)CCBr)cc2)cc1 | 5.32 | 4.94 | 3.5 | 
48 | COc1cccc(C(=O)Oc2ccc(N(CCBr)CCBr)cc2)c1 | 5.25 |  | 3.5 | 
49 | CS(=O)(=O)OCCN(CCOS(C)(=O)=O)c1ccc([N+](=O)[O-])c(Cl)c1 |  |  |  | log(1/C) [9]: 3.02
50 | O=C(Oc1ccc(N(CCCl)CCCl)cc1)c1cccc(Cl)c1 | 3.95 | 4.55 | 3.5 | 
51 | CCOC(=O)CCCc1ccc(N(CCCl)CCCl)cc1 |  |  |  | log K [3]: -3.84; log(%) [3]: 1.36
52 | CCOC(=O)c1cc(N(CCOS(C)(=O)=O)CCOS(C)(=O)=O)ccc1N |  |  |  | log(1/C) [9]: 4.85
53 | O=C(O)c1ccccc1N(CCO)CCCl |  |  |  | log(1/C) [9]: 4.94
54 | CS(=O)(=O)OCCN(CCOS(C)(=O)=O)c1ccc(N=O)c(Cl)c1 |  |  |  | log(1/C) [9]: 6.03
55 | CCN(CC)c1ccc(OC(=O)c2cccc(OC)c2)cc1 |  |  |  | log K [5]: 0.15
56 | CCN(CC)c1ccc(OC(=O)c2cccc(C)c2)cc1 |  |  |  | log K [5]: 0.32
57 | Cc1ccc(S(=O)(=O)OCCN(CCOS(=O)(=O)c2ccc(C)cc2)c2ccc(F)cc2)cc1 |  |  |  | log(1/C) [13]: 4.2
58 | O=C(Oc1ccc(N(CCBr)CCBr)cc1)c1ccc([N+](=O)[O-])cc1 | 5.37 | 4.86 | 3.5 | 
59 | CCOC(=O)CCOc1ccccc1N(CCCl)CCCl |  |  |  | log(1/C) [9]: 4.67
60 | CCN(CC)c1ccc(OC(=O)c2ccccc2)cc1 |  |  |  | log K [5]: -0.26
61 | ClCCN(CCCl)c1ccc2ccccc2c1 [CHLORNAPHAZINE] |  |  |  | log(%) [3]: 1.18
62 | CCc1ccccc1C(=O)Oc1ccc(N(CCBr)CCBr)cc1 | 4.64 | 4.96 | 3.5 | 

Reference: ChEMBL document CHEMBL3244068 (J Med Chem, 1978)
